The record followed here is patent publication US11339156B2, “3-(1H-pyrazol-4-yl)pyridine allosteric modulators of the M4 muscarinic acetylcholine receptor” (Merck Sharp & Dohme Corp., priority 2017, dated 2022).

The target in this assay is T1, human M4 muscarinic acetylcholine receptor (Homo sapiens, UniProt P08173).
T1 construct: expressed in transfected cells
T1 sequence (P08173 1-479): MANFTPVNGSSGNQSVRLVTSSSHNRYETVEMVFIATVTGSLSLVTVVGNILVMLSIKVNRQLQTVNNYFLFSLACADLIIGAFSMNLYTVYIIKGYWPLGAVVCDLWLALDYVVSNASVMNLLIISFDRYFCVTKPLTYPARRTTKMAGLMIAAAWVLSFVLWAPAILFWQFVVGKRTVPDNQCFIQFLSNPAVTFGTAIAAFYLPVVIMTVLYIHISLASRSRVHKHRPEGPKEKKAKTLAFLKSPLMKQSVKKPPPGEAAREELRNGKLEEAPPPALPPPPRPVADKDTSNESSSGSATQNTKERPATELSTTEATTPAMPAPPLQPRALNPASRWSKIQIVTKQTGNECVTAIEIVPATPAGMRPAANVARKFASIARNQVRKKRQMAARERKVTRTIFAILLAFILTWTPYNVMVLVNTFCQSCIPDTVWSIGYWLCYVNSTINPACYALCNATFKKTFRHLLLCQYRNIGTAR
Nature of the assay: human FLIPR-based M4 PAM assay (CHO-K1 cells with human M4 receptor and Gαqi5, calcium dye fluorescence). Type of assay: cell-based. The conditions noted are these: inflection point of 4 parameter logistic fit; acetylcholine added at 20% of maximum response; read-out: M4PAM IP. The gist of the method:
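The FLIPR read recorded 4 min after compound was added across a concentration range, then 3.5 min after acetylcholine giving 20% of its maximal response, with an occasional extra EC70 addition. Cells were dye-loaded for about 1 h at 37 °C. Potency is the curve inflection point from a four-parameter logistic fit.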
On to `CC(C)CCn1cc(-c2cc(Cl)cnc2-c2ccc3scnc3c2)cn1` [Example 78, 5-{5-chloro-3-[1-(3-methylbutyl)-1H-pyrazol-4-yl]pyridin-2-yl}-1,3-benzothiazole], for which the EC50 is 204 nM. `CC(C)(C)Cn1cc(-c2ccc(C#N)nc2-c2ccc3nn[nH]c3c2)cn1` [Example 79, 6-(1H-benzotriazol-6-yl)-5-[1-(2,2-dimethylpropyl)-1H-pyrazol-4-yl]pyridine-2-carbonitrile]: the EC50 amounted to 38.4 nM. Consider `CC(C)(C)Cn1cc(-c2cc(F)cnc2-c2ccn3ccnc3c2)cn1` [Example 80, 7-{3-[1-(2,2-dimethylpropyl)-1H-pyrazol-4-yl]-5-fluoropyridin-2-yl}imidazo[1,2-a]pyridine], for which the EC50 came to 97.7 nM.

`Cc1cn2ccc(-c3nc(C#N)ccc3-c3cnn(CC(C)(C)C)c3)cc2n1` [Example 81, 5-[1-(2,2-dimethylpropyl)-1H-pyrazol-4-yl]-6-(2-methylimidazo[1,2-a]pyridin-7-yl)pyridine-2-carbonitrile]: the EC50 came out at 24.7 nM. Under `CC(C)(C)Cn1cc(-c2ccc(C#N)nc2-c2ccn3c(F)cnc3c2)cn1` [Example 82, 5-[1-(2,2-dimethylpropyl)-1H-pyrazol-4-yl]-6-(3-fluoroimidazo[1,2-a]pyridin-7-yl)pyridine-2-carbonitrile] stands 51.6 nM; under `CC(C)(C)Cn1cc(-c2ccc(C(F)(F)F)nc2-c2ccn3ccnc3c2)cn1` [Example 83, 7-{3-[1-(2,2-dimethylpropyl)-1H-pyrazol-4-yl]-6-(trifluoromethyl)pyridin-2-yl}imidazo[1,2-a]pyridine], 46 nM; under `CC(C)(C)Cn1cc(-c2ccc(C#N)nc2-c2ccc3cnnn3c2)cn1` [Example 84, 5-[1-(2,2-dimethylpropyl)-1H-pyrazol-4-yl]-6-[1,2,3]triazolo[1,5-a]pyridin-6-ylpyridine-2-carbonitrile], 235 nM. Under `COc1ccc(-c2cnn(CC(C)(C)C)c2)c(-c2ccn3cc(C)nc3c2)n1` [Example 85, 7-{3-[1-(2,2-dimethylpropyl)-1H-pyrazol-4-yl]-6-methoxypyridin-2-yl}-2-methylimidazo[1,2-a]pyridine] stands 149 nM.

Turning to `Cc1cn2ccc(-c3ncccc3-c3cnn(CC(C)(C)C)c3)cc2n1` [Example 87, 7-{3-[1-(2,2-dimethylpropyl)-1H-pyrazol-4-yl]pyridin-2-yl}-2-methylimidazo[1,2-a]pyridine], the EC50 was determined as 121 nM. Under `Cc1cn2ncc(-c3nc(C#N)ccc3-c3cnn(CC(C)(C)C)c3)cc2n1` [Example 88, 5-[1-(2,2-dimethylpropyl)-1H-pyrazol-4-yl]-6-(2-methylimidazo[1,2-b]pyridazin-7-yl)pyridine-2-carbonitrile] stands 68.7 nM; under `Cc1nc2cc(-c3nc(C#N)ccc3-c3cnn(CC(C)(C)C)c3)cnc2n1C` [Example 89, 6-(2,3-dimethyl-3H-imidazo[4,5-b]pyridin-6-yl)-5-[1-(2,2-dimethylpropyl)-1H-pyrazol-4-yl]pyridine-2-carbonitrile], 116 nM; under `Cc1cn2ccc(-c3nc(C#N)ccc3-c3cnn(CC(O)C(C)C)c3)cc2n1` (stereo not shown) [Example 90, 5-[1-(2-hydroxy-3-methylbutyl)-1H-pyrazol-4-yl]-6-(2-methylimidazo[1,2-a]pyridin-7-yl)pyridine-2-carbonitrile], 92.2 nM. `CCC(C)(C)Cn1cc(-c2ccc(C#N)nc2-c2ccn3ccnc3c2)cn1` [Example 91, 5-[1-(2,2-dimethylbutyl)-1H-pyrazol-4-yl]-6-imidazo[1,2-a]pyridin-7-ylpyridine-2-carbonitrile]: the EC50 is 17.1 nM. Under `N#Cc1ccc(-c2cnn(CC3CCC3)c2)c(-c2ccn3ccnc3c2)n1` [Example 93, 5-[1-(cyclobutylmethyl)-1H-pyrazol-4-yl]-6-imidazo[1,2-a]pyridin-7-ylpyridine-2-carbonitrile] stands 27.5 nM; under `CC1(Cn2cc(-c3ccc(C#N)nc3-c3ccn4ccnc4c3)cn2)CCC1` [Example 94, 6-imidazo[1,2-a]pyridin-7-yl-5-{1-[(1-methylcyclobutyl)methyl]-1H-pyrazol-4-yl}pyridine-2-carbonitrile], 23.6 nM.

For `Cc1ccc(-c2cnn(CCC(C)C)c2F)c(-c2ccn3ccnc3c2)n1` [Example 95, 7-{3-[5-fluoro-1-(3-methylbutyl)-1H-pyrazol-4-yl]-6-methylpyridin-2-yl}imidazo[1,2-a]pyridine], the EC50 amounted to 79.9 nM.

For `Cc1ccc(-c2cnn(CC(C)C)c2)c(-c2ccc3c(c2)C(=O)N(C2CC2)C3)n1` [Example 96, 2-cyclopropyl-6-{6-methyl-3-[1-(2-methylpropyl)-1H-pyrazol-4-yl]pyridin-2-yl}-2,3-dihydro-1H-isoindol-1-one], the EC50 worked out at 197 nM. Under `CN1Cc2ccc(-c3nc(C#N)ccc3-c3cnn(CC(C)(C)C(F)F)c3)cc2C1=O` [Example 97, 5-[1-(3,3-difluoro-2,2-dimethylpropyl)-1H-pyrazol-4-yl]-6-(2-methyl-3-oxo-2,3-dihydro-1H-isoindol-5-yl)pyridine-2-carbonitrile] stands 45 nM. Under `CC(C)(C)Cn1cc(-c2ccc(C(F)F)nc2-c2ccn3ccnc3c2)cn1` [Example 98, 7-{6-(difluoromethyl)-3-[1-(2,2-dimethylpropyl)-1H-pyrazol-4-yl]pyridin-2-yl}imidazo[1,2-a]pyridine] stands 40.8 nM; under `CC(C)(C)Cn1cc(-c2ccc(C3CC3)nc2-c2ccn3ccnc3c2)cn1` [Example 99, 7-{6-cyclopropyl-3-[1-(2,2-dimethylpropyl)-1H-pyrazol-4-yl]pyridin-2-yl}imidazo[1,2-a]pyridine], 152 nM; under `CC(C)(C)Cn1cc(-c2ccc(OC(F)(F)F)nc2-c2ccn3ccnc3c2)cn1` [Example 100, 7-{3-[1-(2,2-dimethylpropyl)-1H-pyrazol-4-yl]-6-(trifluoromethoxy)pyridin-2-yl}imidazo [1,2-a]pyridine], 211 nM. Under `Cc1nc2cc(-c3nc(C#N)ccc3-c3cnn(CC(C)(C)C(F)(F)F)c3)ccn2n1` [Example 101, 6-(2-methyl[1,2,4]triazolo [1,5-a]pyridin-7-yl)-5-[1-(3,3,3-trifluoro-2,2-dimethylpropyl)-1H-pyrazol-4-yl]pyridine-2-carbonitrile] stands 58 nM. For the compound `Cc1nc2cc(-c3ncccc3-c3cnn(CC(C)(C)C(C)(F)F)c3)ccc2n1C` [Example 102, 5-{3-[1-(3,3-difluoro-2,2-dimethylbutyl)-1H-pyrazol-4-yl]pyridin-2-yl}-1,2-dimethyl-1H-benzimidazole], the EC50 was 113 nM. For `Cc1nc2cc(-c3ncc(F)cc3-c3cnn(CC(C)(C)C(C)(F)F)c3)ccc2n1C` [Example 103, 5-(3-(1-(3,3-difluoro-2,2-dimethylbutyl)-1H-pyrazol-4-yl)-5-fluoropyridin-2-yl)-1,2-dimethyl-1H-benzo[d]imidazole], the EC50 turned out to be 117 nM. Consider `COCc1cn2ccc(-c3nc(C#N)ccc3-c3cnn(CC(C)(C)C)c3)cc2n1` [Example 104, 5-[1-(2,2-dimethylpropyl)-1H-pyrazol-4-yl]-6-[2-(methoxymethyl)imidazo[1,2-a]pyridin-7-yl]pyridine-2-carbonitrile], for which the EC50 came to 44.7 nM. On to `COCc1nc2cc(-c3nc(C#N)ccc3-c3cnn(CC(C)(C)C)c3)ccn2n1` [Example 105, 5-[1-(2,2-dimethylpropyl)-1H-pyrazol-4-yl]-6-[2-(methoxymethyl)[1,2,4]triazolo[1,5-a]pyridin-7-yl]pyridine-2-carbonitrile], for which the EC50 worked out at 70.5 nM. Under `Cc1cn2ccc(-c3ncc(F)cc3-c3cnn(CC(C)(C)C(F)F)c3)cc2n1` [Example 106, 7-{3-[1-(3,3-difluoro-2,2-dimethylpropyl)-1H-pyrazol-4-yl]-5-fluoropyridin-2-yl}-2-methylimidazo[1,2-a]pyridine] stands 69.5 nM; under `CC(C)(Cn1cc(-c2ccc(C#N)nc2-c2ccn3ccnc3c2)cn1)C(F)F` [Example 107, 5-[1-(3,3-difluoro-2,2-dimethylpropyl)-1H-pyrazol-4-yl]-6-imidazo[1,2-a]pyridin-7-ylpyridine-2-carbonitrile], 32.1 nM; under `Cc1ccc(-c2cnn(CC3CC3(C)C)c2)c(-c2ccn3ccnc3c2)n1` (stereo not shown) [Example 109, 7-(3-{1-[(2,2-dimethylcyclopropyl)methyl]-1H-pyrazol-4-yl}-6-methylpyridin-2-yl)imidazo[1,2-a]pyridine], 75.9 nM. Under `CC(C)CCn1cc(-c2ccc(Cl)nc2-c2ccc3c(c2)C(=O)NC3)cn1` [Example 110, 6-(6-chloro-3-(1-isopentyl-1H-pyrazol-4-yl)pyridin-2-yl)isoindolin-1-one] stands 40.2 nM. Under `CC(C)CCn1cc(-c2ccc(Cl)nc2-c2ccc3c(c2)C(=O)N(CC(F)(F)F)C3)cn1` [Example 111, 6-chloro-3-(1-isopentyl-1H-pyrazol-4-yl)-2-(3-oxo-2-(2,2,2-trifluoroethyl)isoindolin-5-yl)pyridin-1-ium] stands 40.2 nM.
